Experiments:
[1] = solid form of the commercially available material; cited from earlier work
[2] = Increase in mass of solid samples stored at ambient temperatures over time; format: physicochemical; details: ambient storage
Source text: (§1) Samples of the materials were stored at ambient temperatures and the appearance of the samples and the mass thereof were noted over time.

[3] = Appearance of solid samples stored at ambient temperatures over time; format: physicochemical; details: ambient storage
Source text: as §1

% increase in mass after 2 h ([2]; 2 h): 7.4%
% increase in mass after 4 h ([2]; 4 h): 8.9%
% increase in mass after 72 h ([2]; 72 h): 25%
Appearance (2 h), printed in the column after 24 hr ([3]; 2 h): Sticky solid
Appearance after 48 hr ([3]; 48 hr): Very stick
Appearance after 72 hr ([3]; 72 hr): Very sticky
Initial Appearance ([3]; initial): Free flowing
SMILES: O=C1CCC(=O)ON2CCN(O1)OC(=O)CCC(=O)O2.[Na].[Na].[Na] [Na3EDDS, trisodium ethylenediamine disuccinate]
hygroscopicity of the solid form [1]: very hygroscopic

Reference: US8628683B2 (Innospec Limited, priority 2007, dated 2014)
